Data: patent publication US7208154B2, “Methods and compositions for the treatment of MHC-associated conditions” (Regents of the University of Michigan, priority 2002, dated 2007)
Like-named read-outs stand apart in the source and are kept apart here. No end group written: not given here.

Tests used:
[1] = system: human fibroblastoid line M1 cells; settings: for Block of 2CA-triggered DNA repair activity: 10 μM 2CA, co-incubation with various concentrations; for Block of the inhibitory effect of shared epitope peptide (Bead*0401) on 2CA-induced DNA repair: prior incubation of M1 cells: L-NMA 5 mM overnight, KT5823 1 μM 10 min; for Inhibition of cAMP-dependent (2CA-induced) DNA repair induction / genoprotective pathway by pentapeptide: M1 cells preincubated overnight with 50 μg/ml synthetic pentapeptide
Source text: To further determine the signaling pathways involved in DNA repair induction, the inventors used the Trevigen CometAssay™ kit (Cat. No. 4250-50-K). The CometAssay is a single-cell gel electrophoresis method that can measure a variety of types of DNA damage, and repair of damage, in individual cells. The assay is based on the alkaline lysis of labile DNA at sites of damage. The unwound, relaxed DNA is able to migrate out of the cell during electrophoresis and can be visualized by SYBR Green staining.
To quantify DNA damage, cells were collected and three parallel samples were processed (a negative control, a DNA damage control (H2O2) and a sample subjected to H2O2 following exposure to various modulators of the cAMP signaling pathway). Cells are then washed in PBS. The washed cells are combined with molten low-melting agarose (Trevigen Cat. No. 4250-50-02) and transferred to a CometSlide™ (Trevigen Cat. No. 4250-100-03). The slides are immersed in lysis buffer for 30 min, on ice, in the dark. The slides are then treated with alkali buffer for 20 to 60 min at room temperature in the dark. The slides are then electrophoresed in buffer for 10 min at 20 volts, then fixed in methanol and ethanol. The slides are then stained with SYBR green (Trevigen Cat. No. 4250-50-05) solution and fluorescently imaged with a Diagnostic Instruments digitized camera, mounted on a Nikon Eclipse E400 microscope. Scion Image software is used to quantitate the comet tail intensity. Each data point is derived from tail fluorescent intensity determination in 50–100 individual cells. Data is presented as % DNA repair (the percent decrement in tail fluorescence intensity in agonist or antagonist-treated cells, relative to the intensity recorded in cells treated with H2O2 only)±SEM. (R.U.s)
To directly examine that possibility, cells were incubated overnight with synthetic peptides corresponding to the region contained within amino acids 65–79 and their ability to mount DNA repair activity in response to cAMP-elevating agents was determined. M1 cells were preincubated overnight with 50 μg/ml of synthetic peptides corresponding to the region surrounding the third allelic hypervariable region (aa 65–79) of each of the following DRβ chains: *0401 (65–79*0401) [SEQ ID NO: 5], *0402 (65–79*0402) [SEQ ID NO: 7], *0403 (65–79*0403) [SEQ ID NO: 9] or *0404(65–79*0404) [SEQ ID NO: 10]. At the end of the preincubation, cells were collected, washed and 2CA-induced DNA repair was determined as above. Table 3 (above) lists the different third allelic hypervariable region peptides used in the entire study disclosed here.
A modified method as described previously by Auger et al. [Nature Med 2:306–310 1996] was used. Briefly, cyanogen bromide activated Speharose 4B (1.5 ml) was washed with 1 mM HCl and incubated with peptides in 0.1 M NaHCO3 and 0.5 M NaCl (pH 8) buffer overnight at 4° C. For each peptide, 5 mg was used per milliliter of Sepharose. Free Sepharose groups were blocked with 0.2 M glycine (pH 8) for 2 hours at room temperature. Columns were washed at 4° C. with the following buffers: 0.1 M NaHCO3, 0.5 M NaCl (pH 8) buffer, then 0.5 M CH3COONa (pH 4) buffer and finally PBS at pH 7.5. M1 cells were plated at a density of 0.5×10^6 cells per well (6 well plate) in 10% FBS DMEM medium until 70–80% confluence. Prior to incubation with peptides, cultures were changed to serum-free DMEM medium, then evenly overlaid with 50 μg bead conjugated peptides, and incubated for the indicated period. Soluble peptides were added overnight to M1 cells at a concentration of 50 μg/ml.

[2] = system: M1 cells; assay: Intracellular cAMP level (enzyme immunoassay) in M1 cells after 2CA; type: cell-based, human; settings: M1 cells preincubated 10 min with peptide-conjugated beads, 10 or 100 μM 2CA
Description: cAMP was determined by using an Amersham Pharmacia Biotech cAMP enzymeimmunoassay (EIA) system (code RPN 225). The reagents are prepared as described by the manufacturer (lysis reagents 1 and 2, the standard for the non-acetylation assay, the anti-cAMP antiserum, the cAMP peroxidase conjugate and wash buffer). […] Samples are added, followed by the antiserum solution. Following the recommended incubation, cAMP-peroxidase conjugate is added and incubated according to the recommended protocol. Each well is then aspirated and washed, and enzyme substrate is added and incubated. The results can then be read at 630 nm or at 450 nm (depending on the time of incubation and method of stopping the reaction), again according to the manufacturer's protocol.
A.) cAMP levels were assayed in M1 cells that were preincubated for 10 minutes with peptide-conjugated beads [Bead*0401, SEQ ID NO:6; Bead*0402, SEQ ID NO: 8], and intracellular cAMP level changes in response to stimulation with either 10 μM (FIG. 10A, top) or 100 μM (FIG. 10A, bottom) of 2CA were determined at different time points. cAMP levels were measured using a commercial enzyme immunoassay kit from Pharmacia. Results are expressed as fold increase of cAMP above baseline levels.

[3] = system: Protein kinase A (PKA); assay: PKA activity in M1 cells after 2CA; type: cell-based, human; settings: M1 cells preincubated with peptide-conjugated beads, 10 μM 2CA
Description: Protein kinase A (PKA) was measured using the Life Technologies™ Protein Kinase A (cAMP-dependent Protein Kinase) Assay System (Cat. No. 13128-012). The basis of the assay system is the use of a heptapeptide substrate and a 17-amino acid inhibitor peptide (which is valuable for proving PKA-specific protein kinase activity). Four assay conditions per experimental condition are recommended by the manufacturer (+/− inhibitor and +/− cAMP) to determine total PKA-specific kinase activity and proportion of PKA activated in the cells or tissue of interest. Briefly, the four parallel assay conditions are set up for each of the four assay conditions for a given cell or tissue sample, according to the manufacturer's instructions. Substrate and [γ-^32P]ATP (3000–6000 Ci/mmol stock solution) are then added to each tube, and incubated according to the manufacturer's instructions. Following the incubation period, a sample from each tube is spotted onto a […] disc, which is the acid washed prior to scintillation counting (all according to the manufacturer's instructions). Activity can then be determined as described by the manufacturer of the kit.
B.) PKA activity was determined in M1 cells preincubated with peptide-conjugated beads [Bead*0401, SEQ ID NO: 6; Bead*0402, SEQ ID NO: 8], at different time points following treatment with 10 μM 2CA as above.

[4] = system: hybrid neuroblastoma-glioma NG108–15 cell line; assay: Neuroprotection in acutely stressed NG108–15 cells; type: cell-based; settings: near-confluent NG108–15, 50 μg/ml peptide, 24 hr
Description: In order to assess whether shared epitope-containing peptides exert a neuroprotective effect, preliminary experiments were carried out with the hybrid neuroblastoma-glioma NG108–15 cell line. Cells (10^5/ml) were first cultured overnight at near-confluence in 24-well plates in DMEM medium supplemented with 1% fetal calf serum (FCS). Under these conditions, NG108–15 cells show a flat, multipolar morphology and neurite formation. After 20 hours, cells were stressed acutely in serum-free medium (by aspiration of the medium and replacement with serum-free DMEM) with 50 μg/ml of peptides and evaluated morphologically at different time points thereafter. […] Morphological differences between cultures treated with different peptides could be observed as early as 5–6 hrs after treatment. The photographs shown were taken at the 24 hr time point. In another experiment (FIG. 12C), NG108–15 cells were cultured at low cell density (2×10^4/ml) in 1% FCS-containing DMEM medium overnight. The next day cells were subjected to acute stress in serum-free and low glucose (RPMI1640) medium (after aspiration of the 1% FCS DMEM) in the presence of 50 μg/ml of either 65–78*0401 [SEQ ID NO: 6] or 65–78*0402 [SEQ ID NO: 8] peptides. After 72 hours, cells were fixed with 1% formaldehyde and inspected microscopically. Mean±SEM was determined by averaging cell counts in eight randomly-selected microscopic fields in 200× magnification. Neurite-positive cells were defined as cells with one or more projections extending at least twice as long as the cell diameter. […] (FIG. 12C). The calculated number of neurite-positive cells was over 6-fold higher in shared epitope-containing peptide-cultured cells. When cultured in the presence of lysophosphatidic acid or high concentrations of serum, neuronal cells undergo neurite retraction (130). […] Thus, it is concluded that shared epitope-containing peptides may exert neuroprotective effects.

## CC(=O)N[C@H](C(=O)O)C(C)(C)SN=O (racemic) [SNAP, S-Nitroso-N-Acetylpenicillamine, reference compound]
[1]
  Block of 2CA-triggered DNA repair activity: completely blocked

## Nc1nc2c(nc(Br)n2[C@@H]2O[C@@H]3COP(=O)(O)O[C@H]3[C@H]2O)c(=O)[nH]1 [8-Br-cGMP, 8-bromo-cyclic GMP, reference compound]
[1]
  Block of 2CA-triggered DNA repair activity: completely blocked

## O=S(=O)(NCCNC/C=C/c1ccc(Br)cc1)c1cccc2cnccc12 [H-89, reference compound]
[1]
  Block of 2CA-triggered DNA repair activity: could also be blocked

## COC(=O)[C@@]1(OC)C[C@H]2O[C@]1(C)n1c3ccccc3c3c4c(c5c6ccccc6n2c5c31)C(=O)N(C)C4 [KT5823, reference compound]
[1]
  Block of the inhibitory effect of shared epitope peptide (Bead*0401) on 2CA-induced DNA repair: could be blocked

## CNC(=N)NCCC[C@H](N)C(=O)O [L-NMA, NG-methyl-L-arginine, reference compound]
[1]
  Block of the inhibitory effect of shared epitope peptide (Bead*0401) on 2CA-induced DNA repair: could be blocked

## CCCCC[C@H](O)/C=C/[C@H]1[C@H](O)CC(=O)[C@@H]1CCCCCCC(=O)O [PGE1, prostaglandin E1, reference compound]
[1]; M1 cells stimulated 20 min with various concentrations before 100 μM H2O2
  DNA repair triggered: triggered in all cases DNA repair

## CCCn1c(=O)c2[nH]c(-c3ccc(OCC(=O)NCCN)cc3)nc2n(CCC)c1=O [XAC, reference compound]
[1]
  Block of 2CA-triggered DNA repair activity: could be blocked

## CCCn1c(=O)[nH]c(=O)c2[nH]cnc21 [enprofylline, reference compound]
[1]
  Block of 2CA-triggered DNA repair activity: could be blocked

## Bead*0402: Sepharose beads chemically conjugated to 14-mer peptide, residues 65–78 of DRβ*0402 chain [SEQ ID NO: 8] (KDILEDERAAVDTY; also: conjugated to Sepharose beads)
[2]
  cAMP level response to 2CA: mounted substantial response to the agonist
[3]
  PKA activation following 2CA: mounted substantial response to the agonist

## Gln Arg Arg Ala Ala (QRRAA)
[1]
  Inhibition of cAMP-dependent (2CA-induced) DNA repair induction / genoprotective pathway by pentapeptide: inhibited completely cAMP-dependent DNA repair induction
[1]; listed as #2
  Inhibition of cAMP-dependent (2CA-induced) DNA repair induction / genoprotective pathway by pentapeptide: efficiently inhibited the genoprotective pathway

## Gln Glu Cys Leu Ala (QECLA)
[1]
  Inhibition of cAMP-dependent (2CA-induced) DNA repair induction / genoprotective pathway by pentapeptide: failed to do so

## Gln Lys Arg Ala Ala (QKRAA)
[1]
  Inhibition of cAMP-dependent (2CA-induced) DNA repair induction / genoprotective pathway by pentapeptide: had a similar effect
[1]; listed as #1
  Inhibition of cAMP-dependent (2CA-induced) DNA repair induction / genoprotective pathway by pentapeptide: efficiently inhibited the genoprotective pathway

## Gln Lys Arg Leu Ala (QKRLA)
[1]
  Inhibition of cAMP-dependent (2CA-induced) DNA repair induction / genoprotective pathway by pentapeptide: equally effective in suppressing cAMP signaling
[1]; listed as #3
  Inhibition of cAMP-dependent (2CA-induced) DNA repair induction / genoprotective pathway by pentapeptide: efficiently inhibited the genoprotective pathway

## Gln Lys Cys Leu Ala (QKCLA)
[1]
  Inhibition of cAMP-dependent (2CA-induced) DNA repair induction / genoprotective pathway by pentapeptide: equally effective in suppressing cAMP signaling
[1]; listed as #5
  Inhibition of cAMP-dependent (2CA-induced) DNA repair induction / genoprotective pathway by pentapeptide: efficiently inhibited the genoprotective pathway

## HBc*0401: recombinant chimeric hepatitis B core protein with insertion of amino acids 65–79 of the β chain encoded by HLA-DRB*0401
[1]; M1 cells preincubated overnight with 50 μg/ml recombinant HBc particles
  Suppression of cAMP signaling (2CA-induced DNA repair): effectively suppressed cAMP signaling

## KDILEDERAAVDTY [65–78*0402, control peptide, amino acids 65–78 of the β chain encoded by the HLA-DRB*0402 allele]
[4]
  Cell morphology after acute serum-free stress: adjacent cells showed a rounding effect and collapsed into aggregates
